Data taken from patent US20210094933A1, “RAPAFUCIN DERIVATIVE COMPOUNDS AND METHODS OF USE THEREOF” (The Johns Hopkins University, priority 2019, published 2021).

What was measured:
Assay type in all cases: cell-based
[1] = tested on: A549; test: Cell proliferation assay (Prolif.), IC50 relative to DMSO control; conditions: A549 cells; for Prolif, A549: IC50 class relative to DMSO control
Protocol: (§1) Cell Proliferation Assay (Prolif.) Guo et al. (2018) Nat. Chem. 11:254-63. Specific cell lines are indicated in each assay and cultured in complete growth media. Activity is scored according to the IC50 values relative to DMSO control. “Low” indicates an IC50 greater than 600 nM, “Medium” indicates an IC50 between 300 nM and 600 nM “High” indicates an IC50 less than 300 nM. “Rel.Uptake” refers to uptake activity characterization relative to a single concentration assay. “Low” indicates a response greater than 0.6 times the activity relative to DMSO, “Medium” indicates a response between 0.6 and 0.3 times the activity relative to DMSO, “High” indicates a response less than 0.3 times the activity relative to DMSO.

[2] = Nucleoside uptake assay, single concentration (Rel.Uptake), response relative to DMSO; cell line indicated in each table; conditions: 293 T cells, nucleoside uptake at single concentration
Protocol: (§2) Nucleoside Uptake Assay (uptake). Nuceloside uptake assays were performed with using 3H-Thymidine as described in Guo et al. (2018) Nat. Chem, 11:254-63. Specific cell lines are indicated in each assay and cultured in complete growth media. Activity is scored according to the IC50 values relative to DMSO control. “Low” indicates an IC50 greater than 600 nM, “Medium” indicates an IC50 between 300 nM and 600 nM “High” indicates an IC50 less than 300 nM. “Rel.Uptake” refers to uptake activity characterization relative to a single concentration assay. “Low” indicates a response greater than 0.6 times the activity relative to DMSO, “Medium” indicates a response between 0.6 and 0.3 times the activity relative to DMSO, “High” indicates a response less than 0.3 times the activity relative to DMSO.

[3] = Cell proliferation assay, single concentration, response relative to DMSO; cell line indicated in each table; conditions: A549 cells
Protocol: as §1

[4] = tested on: 293T; test: Nucleoside uptake assay (3H-Thymidine), IC50 relative to DMSO control; conditions: 293T cells; Table 13
Protocol: as §2

| Compound | Prolif, A549 [1] | Rel. Prolif., A549 [3] | further results |
| --- | --- | --- | --- |
| CCCC[C@H]1C(=O)N[C@@H](Cc2ccc3ccccc3c2)C(=O)N(C)[C@@H](COC(C)(C)C)C(=O)NCC(=O)N(C)CCC=CC(=O)OCC(C)(C)C(=O)C(=O)N2CCCC[C@H]2C(=O)O[C@H](CCc2ccc(OC)c(O)c2)c2cccc(c2)OCC(=O)N1C [Compound 1564] | high | – | Rel. Uptake, 293 T [2]: high |
| CCCC[C@H]1C(=O)N[C@@H](Cc2ccc3ccccc3c2)C(=O)N(C)[C@@H](COC(C)(C)C)C(=O)NCC(=O)N(C)CCC=CC(=O)OCC(C)(C)C(=O)C(=O)N2CCCC[C@H]2C(=O)O[C@H](CCc2cc(OC)c(OC)cc2OC)c2cccc(c2)OCC(=O)N1C [Compound 562] | medium | medium | – |
| CCCC[C@H]1C(=O)N[C@@H](Cc2ccc3ccccc3c2)C(=O)N(C)[C@@H](COC(C)(C)C)C(=O)NCC(=O)N(C)CCC=CC(=O)OCC(C)(C)C(=O)C(=O)N2CCN(C(=O)OCC3c4ccccc4-c4ccccc43)C[C@H]2C(=O)O[C@H](CCc2ccc(OC)c(OC)c2)c2cccc(c2)OCC(=O)N1C [Compound 571] | low | low | – |
| CCCC[C@H]1C(=O)N[C@@H](Cc2ccc3ccccc3c2)C(=O)N(C)[C@@H](COC(C)(C)C)C(=O)NCC(=O)N(C)CCC=CC(=O)OCC(C)(C)C(=O)C(=O)N2CCCC[C@H]2C(=O)O[C@H](CCc2cc(O)c(OC)c(OC)c2)c2cccc(c2)OCC(=O)N1C [Compound 566] | medium | medium | – |
| CCCC[C@H]1C(=O)N[C@@H](Cc2ccc3ccccc3c2)C(=O)N(C)[C@@H](COC(C)(C)C)C(=O)NCC(=O)N(C)CCC=CC(=O)OCC(C)(C)C(=O)C(=O)N2CCCC[C@H]2C(=O)O[C@H](CCc2ccc(OC)c(OC)c2O)c2cccc(c2)OCC(=O)N1C [Compound 565] | medium | medium | – |
| CCCC[C@H]1C(=O)N[C@@H](Cc2ccc3ccccc3c2)C(=O)N(C)[C@@H](COC(C)(C)C)C(=O)NCC(=O)N(C)CCC=CC(=O)OCC(C)(C)C(=O)C(=O)N2CCCC[C@H]2C(=O)O[C@H](CCc2cc(F)c(OC)c(OC)c2)c2cccc(c2)OCC(=O)N1C [Compound 568] | medium | medium | – |
| C=C1NCC(=O)N(C)CC/C=C\C(=O)OCC(C)(C)C(=O)C(=O)N2CCCC[C@H]2C(=O)O[C@H](CCc2ccc(OC)c(OC)c2)c2cccc(c2)NC(=O)CCC(=O)N(C)[C@@H](CC(C)C)C(=O)N[C@H](Cc2ccccc2)C(=O)N(C)[C@H]1[C@@H](C)CC [Compound 1592] | – | – | IC50 ([1]; Homo sapiens): < 300 nM; Rel. Uptake, 293 T [2]: Low (“Low” indicates a response greater than 0.6 times the activity relative to DMSO) |
| CCCC[C@H]1C(=O)N[C@@H](Cc2ccc3ccccc3c2)C(=O)N(C)[C@@H](COC(C)(C)C)C(=O)NCC(=O)N(C)CCC=CC(=O)OCC(C)(C)C(=O)C(=O)N2CCCC[C@H]2C(=O)O[C@H](CCc2cc(OC)c(OC)cc2O)c2cccc(c2)OCC(=O)N1C [Compound 567] | medium | medium | – |
| CCCC[C@H]1C(=O)N[C@@H](Cc2ccc3ccccc3c2)C(=O)N(C)[C@@H](COC(C)(C)C)C(=O)NCC(=O)N(C)CCC=CC(=O)OCC(C)(C)C(=O)C(=O)N2CCCC[C@H]2C(=O)O[C@H](CCc2ccc(OC)c(OC)c2)c2cc(ccc2F)OCC(=O)N1C [Compound 573] | low | low | – |
| CCCC[C@H]1C(=O)C[C@@H](Cc2ccc3ccccc3c2)C(=O)N(C)[C@@H](COC(C)(C)C)C(=O)NCC(=O)N(C)CCC=CC(=O)OCC(C)(C)C(=O)C(=O)N2CCCC[C@H]2C(=O)O[C@H](CCc2ccc(OC)c(OC)c2OC)c2cccc(c2)OCC(=O)N1C [Compound 561] | medium | medium | – |
| CCCC[C@H]1C(=O)N[C@@H](Cc2ccc3ccccc3c2)C(=O)N(C)[C@@H](COC(C)(C)C)C(=O)NCC(=O)N(C)CCC=CC(=O)OCC(C)(C)C(=O)C(=O)N2CCCC[C@H]2C(=O)O[C@H](CCc2ccc(OC)c(OC)c2)c2cncc(c2)OCC(=O)N1C [Compound 1565] | low | – | Rel. Uptake, 293 T [2]: low |
| CCCC[C@H]1C(=O)N[C@@H](Cc2ccc3ccccc3c2)C(=O)N(C)[C@@H](COC(C)(C)C)C(=O)NCC(=O)N(C)CCC=CC(=O)OCC(C)(C)C(=O)C(=O)N2CCCC[C@H]2C(=O)O[C@H](CCc2ccc(OC)c(OC)c2F)c2cccc(c2)OCC(=O)N1C [Compound 570] | medium | medium | – |
| CCCC[C@H]1C(=O)N[C@@H](Cc2ccc3ccccc3c2)C(=O)N(C)[C@@H](COC(C)(C)C)C(=O)NCC(=O)N(C)CCC=CC(=O)OCC(C)(C)C(=O)C(=O)N2CCCC[C@H]2C(=O)O[C@H](CCc2ccc(OC)c(OC)c2)c2cccc(c2F)OCC(=O)N1C [Compound 1563] | high | – | Rel. Uptake, 293 T [2]: high |
| CCCC[C@H]1C(=O)N[C@@H](Cc2ccc3ccccc3c2)C(=O)N(C)[C@@H](COC(C)(C)C)C(=O)NCC(=O)N(C)CCC=CC(=O)OCC(C)(C)C(=O)C(=O)N2CCCC[C@H]2C(=O)O[C@H](CCc2cc(OC)c(OC)c(OC)c2)c2cccc(c2)OCC(=O)N1C [Compound 560] | medium | medium | – |
| CCCC[C@H]1C(=O)N[C@@H](Cc2ccc3ccccc3c2)C(=O)N(C)[C@@H](COC(C)(C)C)C(=O)NCC(=O)N(C)CCC=CC(=O)OCC(C)(C)C(=O)C(=O)N2CCCC[C@H]2C(=O)O[C@H](CCc2ccc(OC)c(OC)c2)c2cc(F)cc(c2)OCC(=O)N1C [Compound 574] | low | low | – |
| CCCC[C@H]1C(=O)N[C@@H](Cc2ccc3ccccc3c2)C(=O)N(C)[C@@H](COC(C)(C)C)C(=O)NCC(=O)N(C)CCC=CC(=O)OCC(C)(C)C(=O)C(=O)N2CCN(C)C[C@H]2C(=O)O[C@H](CCc2ccc(OC)c(OC)c2)c2cccc(c2)OCC(=O)N1C [Compound 572] | medium | medium | – |
| CCCC[C@H]1C(=O)N[C@@H](Cc2ccc3ccccc3c2)C(=O)N(C)[C@@H](COC(C)(C)C)C(=O)NCC(=O)N(C)CCC=CC(=O)OCC(C)(C)C(=O)C(=O)N2CCCC[C@H]2C(=O)O[C@H](CCc2cc(OC)c(OC)cc2F)c2cccc(c2)OCC(=O)N1C [Compound 569] | medium | medium | – |
| CCCC[C@H]1C(=O)N[C@@H](Cc2ccc3ccccc3c2)C(=O)N(C)[C@@H](COC(C)(C)C)C(=O)NCC(=O)N(C)CCC=CC(=O)OCC(C)(C)C(=O)C(=O)N2CCCC[C@H]2C(=O)O[C@H](CCc2cc(OC)cc(OC)c2OC)c2cccc(c2)OCC(=O)N1C [Compound 563] | low | low | – |
| CCCC[C@H]1C(=O)N[C@@H](Cc2ccc3ccccc3c2)C(=O)N(C)[C@@H](COC(C)(C)C)C(=O)NCC(=O)N(C)CCC=CC(=O)OCC(C)(C)C(=O)C(=O)N2CCCC[C@H]2C(=O)O[C@H](CCc2c(OC)ccc(OC)c2OC)c2cccc(c2)OCC(=O)N1C [Compound 564] | low | low | – |
| CCCC[C@H]1C(=O)N[C@@H](Cc2ccc3ccccc3c2)C(=O)N(C)[C@@H](COC(C)(C)C)C(=O)NCC(=O)N(C)CCC=CC(=O)OCC(C)(C)C(=O)C(=O)N2CCCC[C@H]2C(=O)O[C@H](CCc2ccc(OC)c(OC)c2)c2ccc(F)c(c2)OCC(=O)N1C [Compound 576] | medium | medium | – |
| COc1ccc(CC[C@H]2OC(=O)[C@@H]3CCCCN3C(=O)C(=O)C(C)(C)COC(=O)C=CCCN(C)C(=O)[C@H](CC(C)C)N(C)C(=O)[C@H]3CCCN3C(=O)[C@H](Cc3ccc(NC(=O)Cc4cccnc4)cc3)NC(=O)[C@H](c3ccccc3)NC(=O)CCC(=O)Nc3cccc2c3)cc1OC [Compound 1589] | – | – | IC50 [4]: > 600 nM; Rel. Uptake, 293 T [2]: Low (“Low” indicates a response greater than 0.6 times the activity relative to DMSO) |
| COc1ccc(CC[C@H]2OC(=O)[C@@H]3CCCCN3C(=O)C(=O)C(C)(C)COC(=O)C=CCCN(C)C(=O)[C@H](CC(C)C)N(C)C(=O)[C@H]3CCCN3C(=O)[C@H](Cc3ccc(CNC(=O)Cc4ccccc4)cc3)NC(=O)[C@H](c3ccccc3)NC(=O)CCC(=O)Nc3cccc2c3)cc1OC [Compound 1586] | – | – | Uptake, 293T [4]: Med; Rel. Uptake, 293 T [2]: Med |
